From the supplement of paper PMC10307832

compound: Cn1c(=O)n(-c2ccc(C(C)(C)C#N)cc2)c2c3cc(-c4cnc5ccccc5c4)ccc3ncc21 [Dactolisib]; assay: relative viability (nuclei count vs DMSO), 5 days (fraction); higher = more cells survive; settings: 0.2 µM
Method in brief: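 Lung cancer cell lines were seeded into 1536-well plates, kept overnight at 37 °C and pinned with five library-drug doses (not always all listed) spaced by √10. After 5 days, nuclei were Hoechst-stained, imaged at 4× and counted with MetaXpress. Viability is treated-well nuclei over vehicle-well nuclei, taken as a median across plates. Plates needed control CV below 25% and at least one doubling.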

With PC-3 [JPC-3] the relative viability was 0.664.

compound: C1CCC(CC1)N(CCNCCC2=C3C(=C(C=C2)O)NC(=O)CO3)C(=O)CCNCCC4=CC(=C(C=C4)Cl)Cl [AZ505] + CS(=O)(=O)N1CCN(Cc2cc3nc(-c4cccc5[nH]ncc45)nc(N4CCOCC4)c3s2)CC1 [Pictilisib] (partner 1 µM); assay: relative viability (nuclei count vs DMSO), 5 days (fraction); higher = more cells survive; settings: first compound 0.08 µM
Method in brief: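 The day after seeding in 1536-well plates, lung cancer cell lines were treated by pin tool with a single drug, or with a fixed anchor-drug dose together with five library-drug doses (not always all listed) in √10 steps. After 5 days, a combined fix-and-stain solution (final 0.05% Triton X-100, 1% formaldehyde, 1 ug/ml Hoechst) was added. Nuclei counted on 4× images gave relative viability as treated counts over vehicle counts, reported as the median of duplicate plates.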

First: NCI-H1395
Second: 201T
The relative viability of the first is higher: 0.704 for the first, 0.651 for the second.

Compared with NCI-H1915, HCC-827 is higher in relative viability: 0.907 for the first, 0.944 for the second.

Compared with LXF-289, NCI-H23 is lower in relative viability: 0.706 for the first, 0.402 for the second.

First: NCI-H1299
Second: NCI-H647
The relative viability of the first is higher: 0.576 for the first, 0.448 for the second.

Going from CAL-12T to NCI-H1651, the relative viability rises from 0.445 to 0.656.

Compared with EPLC-272H, NCI-H2228 is higher in relative viability: 0.255 for the first, 0.317 for the second.

Going from NCI-H1792 to NCI-H1355, the relative viability rises from 0.301 to 0.409.

First: NCI-H3122
Second: NCI-H1437
The relative viability of the first is higher: 0.561 for the first, 0.46 for the second.

Compared with NCI-H1755, NCI-H2023 is lower in relative viability: 0.347 for the first, 0.249 for the second.

Compared with HCC-15, NCI-H1793 is lower in relative viability: 0.658 for the first, 0.284 for the second.

Compared with PC-14, EKVX is lower in relative viability: 0.449 for the first, 0.388 for the second.

First: LC-2-ad
Second: NCI-H1563
The relative viability of the first is lower: 0.427 for the first, 0.612 for the second.

Compared with NCI-H1944, NCI-H1975 is lower in relative viability: 0.343 for the first, 0.264 for the second.

First: RERF-LC-KJ
Second: ABC-1
The relative viability of the first is lower: 0.578 for the first, 0.711 for the second.

Compared with NCI-H358, NCI-H650 is higher in relative viability: 0.3 for the first, 0.69 for the second.

Cell Line PC-3 [JPC-3] has a relative viability of 0.597.

same assay, conditions: first compound 0.253 µM

Compared with NCI-H1395, 201T is higher in relative viability: 0.563 for the first, 0.678 for the second.

First: NCI-H1915
Second: HCC-827
The relative viability of the first is lower: 0.891 for the first, 0.963 for the second.

Compared with NCI-H1299, CAL-12T is lower in relative viability: 0.672 for the first, 0.355 for the second.

Going from NCI-H1651 to EPLC-272H, the relative viability falls from 0.56 to 0.306.

First: NCI-H2228
Second: NCI-H1792
The relative viability of the first is lower: 0.247 for the first, 0.262 for the second.

Compared with NCI-H1355, NCI-H3122 is higher in relative viability: 0.338 for the first, 0.573 for the second.

First: NCI-H1437
Second: NCI-H1755
The relative viability of the first is higher: 0.424 for the first, 0.331 for the second.

First: NCI-H2023
Second: HCC-15
The relative viability of the first is lower: 0.17 for the first, 0.657 for the second.

First: NCI-H1793
Second: PC-14
The relative viability of the first is lower: 0.417 for the first, 0.754 for the second.

First: EKVX
Second: LC-2-ad
The relative viability of the first is higher: 0.466 for the first, 0.422 for the second.

Compared with NCI-H1563, NCI-H1944 is lower in relative viability: 0.62 for the first, 0.372 for the second.

Going from NCI-H1975 to RERF-LC-KJ, the relative viability rises from 0.303 to 0.591.

Going from ABC-1 to NCI-H358, the relative viability falls from 0.618 to 0.332.

Going from NCI-H650 to PC-3 [JPC-3], the relative viability falls from 1.01 to 0.702.

same assay, conditions: first compound 0.8 µM

Going from NCI-H1395 to 201T, the relative viability rises from 0.512 to 0.613.

Compared with NCI-H1915, HCC-827 is higher in relative viability: 0.835 for the first, 1.1 for the second.

First: LXF-289
Second: NCI-H23
The relative viability of the first is higher: 0.773 for the first, 0.582 for the second.

First: NCI-H1299
Second: NCI-H647
The relative viability of the first is higher: 0.703 for the first, 0.359 for the second.

Compared with CAL-12T, NCI-H1651 is higher in relative viability: 0.559 for the first, 0.603 for the second.

Going from EPLC-272H to NCI-H2228, the relative viability rises from 0.285 to 0.536.

First: NCI-H1792
Second: NCI-H1355
The relative viability of the first is lower: 0.288 for the first, 0.428 for the second.

First: NCI-H3122
Second: NCI-H1437
The relative viability of the first is higher: 0.665 for the first, 0.599 for the second.

First: NCI-H1755
Second: NCI-H2023
The relative viability of the first is higher: 0.333 for the first, 0.197 for the second.

First: HCC-15
Second: NCI-H1793
The relative viability of the first is higher: 0.712 for the first, 0.426 for the second.

Compared with PC-14, EKVX is lower in relative viability: 0.658 for the first, 0.425 for the second.

Going from LC-2-ad to NCI-H1563, the relative viability rises from 0.465 to 0.695.

First: NCI-H1944
Second: NCI-H1975
The relative viability of the first is higher: 0.346 for the first, 0.267 for the second.

First: RERF-LC-KJ
Second: ABC-1
The relative viability of the first is lower: 0.448 for the first, 0.759 for the second.

Going from NCI-H358 to NCI-H650, the relative viability rises from 0.355 to 0.876.

PC-3 [JPC-3] was tested, and the relative viability was 0.676.

same assay, conditions: first compound 2.53 µM

First: NCI-H1395
Second: 201T
The relative viability of the first is higher: 0.635 for the first, 0.633 for the second.

Going from NCI-H1915 to HCC-827, the relative viability rises from 0.703 to 0.999.

Going from LXF-289 to NCI-H23, the relative viability falls from 0.731 to 0.416.

Compared with NCI-H1299, NCI-H647 is lower in relative viability: 0.546 for the first, 0.422 for the second.

First: CAL-12T
Second: NCI-H1651
The relative viability of the first is lower: 0.432 for the first, 0.633 for the second.

First: EPLC-272H
Second: NCI-H2228
The relative viability of the first is lower: 0.256 for the first, 0.332 for the second.

First: NCI-H1792
Second: NCI-H1355
The relative viability of the first is lower: 0.25 for the first, 0.321 for the second.

Compared with NCI-H3122, NCI-H1437 is higher in relative viability: 0.409 for the first, 0.415 for the second.

Going from NCI-H1755 to NCI-H2023, the relative viability falls from 0.42 to 0.264.

Compared with HCC-15, NCI-H1793 is lower in relative viability: 0.462 for the first, 0.31 for the second.

Compared with PC-14, EKVX is lower in relative viability: 0.643 for the first, 0.446 for the second.

Going from LC-2-ad to NCI-H1563, the relative viability rises from 0.515 to 0.595.

First: NCI-H1944
Second: NCI-H1975
The relative viability of the first is higher: 0.344 for the first, 0.277 for the second.

Compared with RERF-LC-KJ, ABC-1 is higher in relative viability: 0.565 for the first, 0.662 for the second.

Going from NCI-H358 to NCI-H650, the relative viability rises from 0.313 to 0.86.

PC-3 [JPC-3] was tested, and the relative viability was 0.706.

same assay, conditions: first compound 8 µM

Compared with NCI-H1395, 201T is lower in relative viability: 0.698 for the first, 0.674 for the second.

First: NCI-H1915
Second: HCC-827
The relative viability of the first is lower: 0.913 for the first, 0.953 for the second.

First: LXF-289
Second: NCI-H23
The relative viability of the first is higher: 0.818 for the first, 0.478 for the second.

Compared with NCI-H1299, NCI-H647 is lower in relative viability: 0.722 for the first, 0.485 for the second.

Going from CAL-12T to NCI-H1651, the relative viability rises from 0.512 to 0.588.

First: EPLC-272H
Second: NCI-H2228
The relative viability of the first is lower: 0.289 for the first, 0.484 for the second.

Going from NCI-H1792 to NCI-H1355, the relative viability rises from 0.323 to 0.445.

Compared with NCI-H3122, NCI-H1437 is lower in relative viability: 0.643 for the first, 0.404 for the second.

Going from NCI-H1755 to NCI-H2023, the relative viability falls from 0.431 to 0.223.

Going from HCC-15 to NCI-H1793, the relative viability falls from 0.71 to 0.386.

Compared with PC-14, EKVX is lower in relative viability: 0.703 for the first, 0.501 for the second.

First: LC-2-ad
Second: NCI-H1563
The relative viability of the first is lower: 0.508 for the first, 0.609 for the second.

Compared with NCI-H1944, NCI-H1975 is lower in relative viability: 0.334 for the first, 0.283 for the second.

Compared with RERF-LC-KJ, ABC-1 is lower in relative viability: 0.666 for the first, 0.57 for the second.

Compared with NCI-H358, NCI-H650 is higher in relative viability: 0.371 for the first, 0.885 for the second.

Work on PC-3 [JPC-3] yielded a relative viability of 0.827.
